Laboratory results from US10052330B2, “Substituted pyrido[3,4-b]pyrazines as Syk inhibitors” (HUTCHISON MEDIPHARMA LIMITED, priority 2011, dated 2018).
pIC50: −log10 of the molar value. Read-outs that look alike come from different tables or passages of the source.

Experiments:
[1] = target: Syk kinase (Homo sapiens, UniProt P43405); assay: Syk kinase enzymatic assay (Kit-Tyr 2 Peptide); assay type: biochemical
[2] = tested on: RBL-2H3 cells; assay: IgE-induced Beta-hexosaminidase secretion in RBL-2H3 cells; assay type: cell-based; details: Rattus norvegicus
[3] = 8 concentrations, 1 μM down to 0.0003 μM, upper bound of each range is 'less than', read-out: IC50: Enzymatic Activity (Syk kinase)
[4] = RBL-2H3, RBL-2H3 cells sensitized with SPE-7, stimulated with DNP-BSA, upper bound of each range is 'less than', read-out: IC50, IgE-induced Beta-hexosaminidase secretion

CC(=O)N1CCN(c2ccc(-c3cc4nccnc4c(NC[C@@H]4CNCCC4(F)F)n3)cc2)CC1 [Compound 384, (S)-1-(4-(4-(5-((4,4-difluoropiperidin-3-yl)methylamino)pyrido[4,3-b]pyrazin-7-yl)phenyl)piperazin-1-yl)ethanone]
pIC50 [1, 3]: 7.00 to 9.00
pIC50 [2, 4]: 7.00 to 9.00

CC(=O)N1CCN(c2ccc(-c3cc4nccnc4c(NC[C@H]4CNCCC4(F)F)n3)cc2)CC1 [Compound 385, (R)-1-(4-(4-(5-((4,4-difluoropiperidin-3-yl)methylamino)pyrido[4,3-b]pyrazin-7-yl)phenyl)piperazin-1-yl)ethanone]
pIC50 [1, 3]: 7.00 to 9.00
pIC50 [2, 4]: 7.00 to 9.00

C[C@H]1CN(c2ccc(-c3cc4nccnc4c(NC[C@@H]4CNCCO4)n3)cc2F)CCO1 [Compound 386, 7-(3-fluoro-4-((S)-2-methylmorpholino)phenyl)-N—((S)-morpholin-2-ylmethyl)pyrido[4,3-b]pyrazin-5-amine]
pIC50 [1, 3]: 7.00 to 9.00
pIC50 [2, 4]: 6.00 to 7.00

C[C@@H]1CN(c2ccc(-c3cc4nccnc4c(NC[C@@H]4CNCCO4)n3)cc2F)CCO1 [Compound 387, 7-(3-fluoro-4-((R)-2-methylmorpholino)phenyl)-N—((S)-morpholin-2-ylmethyl)pyrido[4,3-b]pyrazin-5-amine]
pIC50 [1, 3]: 7.00 to 9.00
pIC50 [2, 4]: 7.00 to 9.00

CNC(=O)COc1ccc(-c2cc3nccnc3c(NC[C@@H]3CNCCC3(F)F)n2)cc1 [Compound 388, (S)-2-(4-(5-((4,4-difluoropiperidin-3-yl)methylamino)pyrido[4,3-b]pyrazin-7-yl)phenoxy)-N-methylacetamide]
pIC50 [1, 3]: 7.00 to 9.00
pIC50 [2, 4]: 7.00 to 9.00

CNC(=O)COc1ccc(-c2cc3nccnc3c(NC[C@H]3CNCCC3(F)F)n2)cc1 [Compound 389, (R)-2-(4-(5-((4,4-difluoropiperidin-3-yl)methylamino)pyrido[4,3-b]pyrazin-7-yl)phenoxy)-N-methylacetamide]
pIC50 [1, 3]: 7.00 to 9.00
pIC50 [2, 4]: 7.00 to 9.00

CS(=O)(=O)c1ccc(-c2cc3nccnc3c(NC[C@@H]3CNCCC3(F)F)n2)cc1 [Compound 390, (S)—N-((4,4-difluoropiperidin-3-yl)methyl)-7-(4-(methylsulfonyl)phenyl)pyrido[4,3-b]pyrazin-5-amine]
pIC50 [1, 3]: 7.00 to 9.00
pIC50 [2, 4]: 7.00 to 9.00

CCn1cc(-c2cc3nccnc3c(NC[C@@H]3CNCCC3(F)F)n2)cn1 [Compound 392, (S)—N-((4,4-difluoropiperidin-3-yl)methyl)-7-(1-ethyl-1H-pyrazol-4-yl)pyrido[4,3-b]pyrazin-5-amine]
pIC50 [1, 3]: 7.00 to 9.00
pIC50 [2, 4]: 7.00 to 9.00

CCn1cc(-c2cc3nccnc3c(NC[C@H]3CNCCC3(F)F)n2)cn1 [Compound 393, (R)—N-((4,4-difluoropiperidin-3-yl)methyl)-7-(1-ethyl-1H-pyrazol-4-yl)pyrido[4,3-b]pyrazin-5-amine]
pIC50 [1, 3]: 6.00 to 7.00
pIC50 [2, 4]: 7.00 to 9.00

CN(c1ccc(-c2cc3nccnc3c(NC[C@@H]3CNCCC3(F)F)n2)cc1)S(C)(=O)=O [Compound 394, (S)—N-(4-(5-((4,4-difluoropiperidin-3-yl)methylamino)pyrido[4,3-b]pyrazin-7-yl)phenyl)-N-methylmethanesulfonamide]
pIC50 [1, 3]: 7.00 to 9.00
pIC50 [2, 4]: 7.00 to 9.00

CN(c1ccc(-c2cc3nccnc3c(NC[C@H]3CNCCC3(F)F)n2)cc1)S(C)(=O)=O [Compound 395, (R)—N-(4-(5-((4,4-difluoropiperidin-3-yl)methylamino)pyrido[4,3-b]pyrazin-7-yl)phenyl)-N-methylmethanesulfonamide]
pIC50 [1, 3]: 6.00 to 7.00
pIC50 [2, 4]: 7.00 to 9.00

C[C@H]1CN(c2ccc(-c3cc4nccnc4c(NC[C@H]4CNCCC4(F)F)n3)cc2)CCO1 [Compound 397, (R)—N-((4,4-difluoropiperidin-3-yl)methyl)-7-(4-((S)-2-methylmorpholino)phenyl)pyrido[4,3-b]pyrazin-5-amine]
pIC50 [1, 3]: 7.00 to 9.00
pIC50 [2, 4]: 7.00 to 9.00

FC1(F)CCNC[C@H]1CNc1nc(-c2cnn(C3CCOCC3)c2)cc2nccnc12 [Compound 398, (S)—N-((4,4-difluoropiperidin-3-yl)methyl)-7-(1-(tetrahydro-2H-pyran-4-yl)-1H-pyrazol-4-yl)pyrido[4,3-b]pyrazin-5-amine]
pIC50 [1, 3]: 7.00 to 9.00
pIC50 [2, 4]: 7.00 to 9.00

FC1(F)CCNC[C@@H]1CNc1nc(-c2cnn(C3CCOCC3)c2)cc2nccnc12 [Compound 399, (R)—N-((4,4-difluoropiperidin-3-yl)methyl)-7-(1-(tetrahydro-2H-pyran-4-yl)-1H-pyrazol-4-yl)pyrido[4,3-b]pyrazin-5-amine]
pIC50 [1, 3]: 7.00 to 9.00
pIC50 [2, 4]: 7.00 to 9.00

O=S(=O)(C1CC1)N1CCN(c2ccc(-c3cc4nccnc4c(NC[C@@H]4CNCCO4)n3)cc2)CC1 [Compound 400, (S)-7-(4-(4-(cyclopropylsulfonyl)piperazin-1-yl)phenyl)-N-(morpholin-2-ylmethyl)pyrido[4,3-b]pyrazin-5-amine]
pIC50 [1, 3]: 7.00 to 9.00
pIC50 [2, 4]: 7.00 to 9.00

CC(C)S(=O)(=O)N1CCN(c2ccc(-c3cc4nccnc4c(NC[C@@H]4CNCCO4)n3)cc2)CC1 [Compound 401]
pIC50 [1, 3]: 7.00 to 9.00
pIC50 [2, 4]: 6.00 to 7.00

CC1(C(=O)N2CCN(c3ccc(-c4cc5nccnc5c(NC[C@@H]5CNCCO5)n4)cc3)CC2)CC1 [Compound 402]
pIC50 [1, 3]: 7.00 to 9.00
pIC50 [2, 4]: 7.00 to 9.00

O=C(CC1CC1)N1CCN(c2ccc(-c3cc4nccnc4c(NC[C@@H]4CNCCO4)n3)cc2)CC1 [Compound 403]
pIC50 [1, 3]: 7.00 to 9.00
pIC50 [2, 4]: 6.00 to 7.00

CC1(C(=O)N2CCN(c3ccc(-c4cc5nccnc5c(NC[C@@H]5CNCCO5)n4)cc3)CC2)COC1 [Compound 404]
pIC50 [1, 3]: 7.00 to 9.00
pIC50 [2, 4]: 6.00 to 7.00

CC(C)C(=O)N1CCN(c2ccc(-c3cc4nccnc4c(NC[C@@H]4CNCCO4)n3)cc2)CC1 [Compound 405]
pIC50 [1, 3]: 7.00 to 9.00
pIC50 [2, 4]: 7.00 to 9.00

C[C@@H](O)C(=O)N1CCN(c2ccc(-c3cc4nccnc4c(NC[C@@H]4CNCCO4)n3)cc2)CC1 [Compound 406]
pIC50 [1, 3]: 7.00 to 9.00
pIC50 [2, 4]: 6.00 to 7.00

O=C(C(F)F)N1CCN(c2ccc(-c3cc4nccnc4c(NC[C@@H]4CNCCO4)n3)cc2)CC1 [Compound 407]
pIC50 [1, 3]: 7.00 to 9.00
pIC50 [2, 4]: 7.00 to 9.00

C[C@H](O)C(=O)N1CCN(c2ccc(-c3cc4nccnc4c(NC[C@@H]4CNCCO4)n3)cc2)CC1 [Compound 408]
pIC50 [1, 3]: 7.00 to 9.00
pIC50 [2, 4]: 6.00 to 7.00

N#CCC(=O)N1CCN(c2ccc(-c3cc4nccnc4c(NC[C@@H]4CNCCO4)n3)cc2)CC1 [Compound 409]
pIC50 [1, 3]: 7.00 to 9.00
pIC50 [2, 4]: 6.00 to 7.00

O=C(CCO)N1CCN(c2ccc(-c3cc4nccnc4c(NC[C@@H]4CNCCO4)n3)cc2)CC1 [Compound 410]
pIC50 [1, 3]: 7.00 to 9.00
pIC50 [2, 4]: 6.00 to 7.00

O=C(CC(F)(F)F)N1CCN(c2ccc(-c3cc4nccnc4c(NC[C@@H]4CNCCO4)n3)cc2)CC1 [Compound 411]
pIC50 [1, 3]: 7.00 to 9.00
pIC50 [2, 4]: 7.00 to 9.00

CC(C)(O)C(=O)N1CCN(c2ccc(-c3cc4nccnc4c(NC[C@@H]4CNCCO4)n3)cc2)CC1 [Compound 412]
pIC50 [1, 3]: 7.00 to 9.00
pIC50 [2, 4]: 6.00 to 7.00

O=C(C1CCC1)N1CCN(c2ccc(-c3cc4nccnc4c(NC[C@@H]4CNCCO4)n3)cc2)CC1 [Compound 413]
pIC50 [1, 3]: 7.00 to 9.00
pIC50 [2, 4]: 7.00 to 9.00

O=C(C1CCCC1)N1CCN(c2ccc(-c3cc4nccnc4c(NC[C@@H]4CNCCO4)n3)cc2)CC1 [Compound 414]
pIC50 [1, 3]: 7.00 to 9.00
pIC50 [2, 4]: 7.00 to 9.00

O=C([C@@H]1CCCO1)N1CCN(c2ccc(-c3cc4nccnc4c(NC[C@@H]4CNCCO4)n3)cc2)CC1 [Compound 415]
pIC50 [1, 3]: 7.00 to 9.00
pIC50 [2, 4]: 7.00 to 9.00

O=C([C@H]1CCCO1)N1CCN(c2ccc(-c3cc4nccnc4c(NC[C@@H]4CNCCO4)n3)cc2)CC1 [Compound 416]
pIC50 [1, 3]: 7.00 to 9.00
pIC50 [2, 4]: 7.00 to 9.00

O=C([C@@H]1CCOC1)N1CCN(c2ccc(-c3cc4nccnc4c(NC[C@@H]4CNCCO4)n3)cc2)CC1 [Compound 417]
pIC50 [1, 3]: 7.00 to 9.00
pIC50 [2, 4]: 6.00 to 7.00

CC(=O)N1CCC(c2ccc(-c3cc4nccnc4c(NC[C@@H]4CNCCO4)n3)cc2)CC1 [Compound 418]
pIC50 [1, 3]: 7.00 to 9.00
pIC50 [2, 4]: 7.00 to 9.00

CC(=O)N(C)C1CCN(c2ccc(-c3cc4nccnc4c(NC[C@@H]4CNCCO4)n3)cc2)CC1 [Compound 420]
pIC50 [1, 3]: 7.00 to 9.00
pIC50 [2, 4]: 6.00 to 7.00

O=C(c1ccoc1)N1CCN(c2ccc(-c3cc4nccnc4c(NCC4CNCCO4)n3)cc2)CC1 (stereo not drawn) [Compound 421]
pIC50 [1, 3]: 7.00 to 9.00
pIC50 [2, 4]: 7.00 to 9.00

N#CC1(C(=O)N2CCN(c3ccc(-c4cc5nccnc5c(NCC5CNCCO5)n4)cc3)CC2)CC1 (stereo not drawn) [Compound 423]
pIC50 [1, 3]: 7.00 to 9.00
pIC50 [2, 4]: 7.00 to 9.00

O=C(CF)N1CCN(c2ccc(-c3cc4nccnc4c(NCC4CNCCO4)n3)cc2)CC1 (stereo not drawn) [Compound 424]
pIC50 [1]: 7.00 to 9.00
pIC50 ([2]; RBL-2H3, read-out: IC50, IgE-induced Beta-hexosaminidase secretion): 7.00 to 9.00

O=C(c1ccco1)N1CCN(c2ccc(-c3cc4nccnc4c(NCC4CNCCO4)n3)cc2)CC1 (stereo not drawn) [Compound 425]
pIC50 [1, 3]: 7.00 to 9.00
pIC50 [2, 4]: 7.00 to 9.00

CCCC(=O)N1CCN(c2ccc(-c3cc4nccnc4c(NC[C@@H]4CNCCO4)n3)cc2)CC1 [Compound 426]
pIC50 [1, 3]: 7.00 to 9.00
pIC50 [2, 4]: 7.00 to 9.00

O=C(C(F)F)N1CCN(c2ccc(-c3cc4nccnc4c(NC[C@@H]4CNCCO4)n3)cc2F)CC1 [Compound 427]
pIC50 [1, 3]: 7.00 to 9.00
pIC50 [2, 4]: 7.00 to 9.00

O=C(CC(F)(F)F)N1CCN(c2ccc(-c3cc4nccnc4c(NC[C@@H]4CNCCO4)n3)cc2F)CC1 [Compound 428]
pIC50 [1, 3]: 7.00 to 9.00
pIC50 [2, 4]: 7.00 to 9.00

CCC(=O)N1CCN(c2ccc(-c3cc4nccnc4c(NC[C@@H]4CNCCO4)n3)cc2F)CC1 [Compound 429]
pIC50 [1, 3]: 7.00 to 9.00
pIC50 [2, 4]: 7.00 to 9.00

O=C(C1CC(F)(F)C1)N1CCN(c2ccc(-c3cc4nccnc4c(NC[C@@H]4CNCCO4)n3)cc2)CC1 [Compound 432]
pIC50 [1, 3]: 7.00 to 9.00
pIC50 [2, 4]: 7.00 to 9.00

CC(F)C(=O)N1CCN(c2ccc(-c3cc4nccnc4c(NC[C@@H]4CNCCO4)n3)cc2)CC1 (stereo partly drawn) [Compound 433]
pIC50 [1, 3]: 7.00 to 9.00
pIC50 [2, 4]: 7.00 to 9.00

N#CCCC(=O)N1CCN(c2ccc(-c3cc4nccnc4c(NC[C@@H]4CNCCO4)n3)cc2)CC1 [Compound 434]
pIC50 [1, 3]: 7.00 to 9.00
pIC50 [2, 4]: 6.00 to 7.00
